Test results reported in patent US10597388B2, “Pyridazinone herbicides” (FMC CORPORATION, priority 2014, dated 2020).

Legend:
Assay in all cases: Test D controlled growth environment herbicide test, pre- and postemergence
Format in all cases: in vivo
[1] = test system: barley, winter (winter barley, Hordeum vulgare)
Excerpt: (§1) Seeds of plant species selected from bluegrass (annual bluegrass, Poa annua), blackgrass (Alopecurus myosuroides), Canada thistle (Cirsium arvense), canarygrass (Phalaris minor), chickweed (common chickweed, Stellaria media), geranium, cutleaf (cutleaf geranium, Geranium dissectum), galium (catchweed bedstraw, Galium aparine), bromegrass, downy (downy bromegrass, Bromus tectorum), field poppy (Papaver rhoeas), field violet (Viola arvensis), foxtail, green (green foxtail, Setaria viridis), deadnettle (henbit deadnettle, Lamium amplexicaule), ryegrass, Italian (Italian ryegrass, Lolium multiflorum), kochia (Kochia scoparia), lambsquarters (Chenopodium album), oilseed rape (Brassica napus), pigweed (Amaranthus retroflexus), chamomile (scentless chamomile, Matricaria inodora), Russian thistle (Salsola kali), speedwell (bird's-eye speedwell, Veronica persica), barley, spring (spring barley, Hordeum vulgare), wheat, spring (spring wheat, Triticum aestivum), buckwheat, wild (wild buckwheat, Polygonum convolvulus), mustard, wild (wild mustard, Sinapis arvensis), oat, wild (wild oat, Avena fatua), radish, wild (wild radish, Raphanus raphanistrum), windgrass (Apera spica-venti), barley, winter (winter barley, Hordeum vulgare), and wheat, winter (winter wheat, Triticum aestivum) were planted into a silt loam soil and treated preemergence with test chemicals formulated in a non-phytotoxic solvent mixture which included a surfactant.
(§2) At the same time, these species were planted in pots containing Redi-Earth® planting medium (Scotts Company, 14111 Scottslawn Road, Marysville, Ohio 43041) comprising spaghnum peat moss, vermiculite, wetting agent and starter nutrients and treated with postemergence applications of the test chemicals formulated in the same manner. Plants ranged in height from 2 to 18 cm (1- to 4-leaf stage). Treated plants and controls were maintained in a controlled growth environment for 14 to 21 d after which time all species were compared to controls and visually evaluated. Plant response ratings, summarized in Table D, are based on a scale of 0 to 100 where 0 is no effect and 100 is complete control. A dash (-) response means no test result.

[2] = test system: Russian thistle (Salsola kali)
Excerpt: as §1, §2

[3] = test system: bromegrass, downy (downy bromegrass, Bromus tectorum)
Excerpt: as §1, §2

[4] = test system: speedwell (bird's-eye speedwell, Veronica persica)
Excerpt: as §1, §2

[5] = test system: field poppy (Papaver rhoeas)
Excerpt: as §1, §2

[6] = test system: deadnettle (henbit deadnettle, Lamium amplexicaule)
Excerpt: as §1, §2

[7] = test system: mustard, wild (wild mustard, Sinapis arvensis)
Excerpt: as §1, §2

[8] = test system: lambsquarters (Chenopodium album)
Excerpt: as §1, §2

kochia (Kochia scoparia) = test system: kochia (Kochia scoparia)
Excerpt: as §1, §2

[9] = test system: chickweed (common chickweed, Stellaria media)
Excerpt: as §1, §2

[10] = test system: galium (catchweed bedstraw, Galium aparine)
Excerpt: as §1, §2

[11] = test system: wheat, winter (winter wheat, Triticum aestivum)
Excerpt: as §1, §2

[12] = test system: windgrass (Apera spica-venti)
Excerpt: as §1, §2

[13] = Postemergence, 31 g ai/ha, scale 0 to 100 (0 no effect, 100 complete control)
[14] = Postemergence, 125 g ai/ha, visual rating on scale 0 (no effect) to 100 (complete control), 14 to 21 d
[15] = Postemergence, 250 g ai/ha, scale 0 to 100 (0 no effect, 100 complete control)
[16] = Preemergence, 62 g ai/ha, scale 0 to 100 (0 no effect, 100 complete control)
[17] = Preemergence, 125 g ai/ha, scale 0 to 100 (0 no effect, 100 complete control)
[18] = Preemergence, 250 g ai/ha, scale 0 to 100 (0 no effect, 100 complete control)
[19] = postemergence, 62 g ai/ha, scale 0 to 100, 0 no effect, 100 complete control

COc1nn(C)c(=O)c(-c2c(C)ccc3ccccc23)c1OC(=O)OC(C)C [Compound 36]
Plant response rating, Barley, Winter [1, 13]: 0
Plant response rating, Barley, Winter [1, 14]: 5
Plant response rating, Barley, Winter [1, 15]: 10
Plant response rating (scale of 0 to 100), Barley, Winter ([1]; Preemergence, 31 g ai/ha): 0
Plant response rating, Barley, Winter [1, 16]: 0
Plant response rating, Barley, Winter [1, 17]: 0
Barley, Winter plant response rating [1, 18]: 0
Plant response rating, Barley, Winter [1, 19]: 0
Russian Thistle plant response rating [2, 13]: 80
Plant response rating, Russian Thistle [2, 14]: 85
Plant response rating, Russian Thistle [2, 15]: 90
Plant response rating (scale of 0 to 100), Russian Thistle ([2]; Preemergence, 31 g ai/ha): 0
Plant response rating, Russian Thistle [2, 16]: 15
Plant response rating, Russian Thistle [2, 17]: 10
Plant response rating, Russian Thistle [2, 18]: 15
Plant response rating, Russian Thistle [2, 19]: 85
Bromegrass, Downy plant response rating [3, 13]: 10
Plant response rating, Bromegrass, Downy [3, 14]: 55
Plant response rating, Bromegrass, Downy [3, 15]: 65
Plant response rating (scale of 0 to 100), Bromegrass, Downy ([3]; Preemergence, 31 g ai/ha): 0
Plant response rating, Bromegrass, Downy [3, 16]: 0
Plant response rating, Bromegrass, Downy [3, 17]: 10
Plant response rating, Bromegrass, Downy [3, 18]: 35
Plant response rating, Bromegrass, Downy [3, 19]: 20
Speedwell plant response rating [4, 13]: 60
Plant response rating, Speedwell [4, 14]: 100
Plant response rating, Speedwell [4, 15]: 100
Plant response rating (scale of 0 to 100), Speedwell ([4]; Preemergence, 31 g ai/ha): 95
Plant response rating, Speedwell [4, 16]: 100
Plant response rating, Speedwell [4, 17]: 100
Plant response rating, Speedwell [4, 18]: 100
Plant response rating, Speedwell [4, 19]: 90
Field Poppy plant response rating [5, 13]: 60
Plant response rating, Field Poppy [5, 14]: 90
Plant response rating, Field Poppy [5, 15]: 100
Plant response rating, Field Poppy [5, 16]: 50
Plant response rating, Field Poppy [5, 17]: 70
Plant response rating, Field Poppy [5, 18]: 100
Plant response rating, Field Poppy [5, 19]: 70
Deadnettle plant response rating [6, 13]: 80
Plant response rating, Deadnettle [6, 14]: 100
Plant response rating, Deadnettle [6, 15]: 100
Plant response rating (scale of 0 to 100), Deadnettle ([6]; Preemergence, 31 g ai/ha): 0
Plant response rating, Deadnettle [6, 16]: 0
Plant response rating, Deadnettle [6, 17]: 50
Plant response rating, Deadnettle [6, 18]: 85
Plant response rating, Deadnettle [6, 19]: 100
Mustard, Wild plant response rating [7, 13]: 100
Plant response rating, Mustard, Wild [7, 14]: 100
Plant response rating, Mustard, Wild [7, 15]: 100
Plant response rating (scale of 0 to 100), Mustard, Wild ([7]; Preemergence, 31 g ai/ha): 45
Plant response rating, Mustard, Wild [7, 16]: 85
Plant response rating, Mustard, Wild [7, 17]: 85
Plant response rating, Mustard, Wild [7, 18]: 90
Plant response rating, Mustard, Wild [7, 19]: 100
Lambsquarters plant response rating [8, 13]: 95
Plant response rating, Lambsquarters [8, 14]: 100
Plant response rating, Lambsquarters [8, 15]: 100
Plant response rating (scale of 0 to 100), Lambsquarters ([8]; Preemergence, 31 g ai/ha): 75
Plant response rating, Lambsquarters [8, 16]: 95
Plant response rating, Lambsquarters [8, 17]: 75
Plant response rating, Lambsquarters [8, 18]: 95
Plant response rating, Lambsquarters [8, 19]: 95
Kochia plant response rating (kochia (Kochia scoparia); [13]): 85
Plant response rating, Kochia (kochia (Kochia scoparia); [14]): 100
Plant response rating, Kochia (kochia (Kochia scoparia); [15]): 100
Plant response rating (scale of 0 to 100), Kochia (kochia (Kochia scoparia); Preemergence, 31 g ai/ha): 0
Plant response rating, Kochia (kochia (Kochia scoparia); [16]): 25
Plant response rating, Kochia (kochia (Kochia scoparia); [17]): 45
Plant response rating, Kochia (kochia (Kochia scoparia); [18]): 60
Plant response rating, Kochia (kochia (Kochia scoparia); [19]): 95
Chickweed plant response rating [9, 13]: 100
Plant response rating, Chickweed [9, 14]: 100
Plant response rating, Chickweed [9, 15]: 100
Plant response rating (scale of 0 to 100), Chickweed ([9]; Preemergence, 31 g ai/ha): 95
Plant response rating, Chickweed [9, 16]: 95
Plant response rating, Chickweed [9, 17]: 100
Plant response rating, Chickweed [9, 18]: 100
Plant response rating, Chickweed [9, 19]: 100
Galium plant response rating [10, 13]: 100
Plant response rating, Galium [10, 14]: 100
Plant response rating, Galium [10, 15]: 100
Plant response rating (scale of 0 to 100), Galium ([10]; Preemergence, 31 g ai/ha): 0
Plant response rating, Galium [10, 16]: 20
Plant response rating, Galium [10, 17]: 75
Plant response rating, Galium [10, 18]: 85
Plant response rating, Galium [10, 19]: 100
Wheat, Winter plant response rating [11, 13]: 0
Plant response rating, Wheat, Winter [11, 14]: 5
Plant response rating, Wheat, Winter [11, 15]: 15
Plant response rating (scale of 0 to 100), Wheat, Winter ([11]; Preemergence, 31 g ai/ha): 0
Plant response rating, Wheat, Winter [11, 16]: 0
Plant response rating, Wheat, Winter [11, 17]: 0
Plant response rating, Wheat, Winter [11, 18]: 0
Plant response rating, Wheat, Winter [11, 19]: 0
Windgrass plant response rating [12, 13]: 40
Plant response rating, Windgrass [12, 14]: 70
Plant response rating, Windgrass [12, 15]: 75
Plant response rating (scale of 0 to 100), Windgrass ([12]; Preemergence, 31 g ai/ha): 0
Plant response rating, Windgrass [12, 16]: 5
Plant response rating, Windgrass [12, 17]: 5
Plant response rating, Windgrass [12, 18]: 65
Plant response rating, Windgrass [12, 19]: 50
